The source of these data is patent US20210369681A1, “Identification of PPM1D mutations as a novel biomarker for NAMPTi sensitivity” (YALE UNIVERSITY, priority 2018, published 2021).

The first data set has as its system parental and PPM1Dtrnc. immortalized human astrocytes.
Assay: not given
Conditions: not given
The class given is cell-based. How it is done: (§1) In vitro cellular viability assessments of immortalized human astrocytes, MCF7, and U2OS cell lines were made using a previously described, high-content, microscopy platform developed by our group. In brief, cells were plated in a 96-well plate at a density of 2000 cells/well, and incubated overnight. Drug treatment or vehicle (0.5% DMSO) control was administered, and cells were incubated for 72-96 hours as indicated. Plates were then washed with PBS and fixed with ice-cold 70% ethanol for 2 hours at 4° C. […] Cells were imaged using a Cytation3 imager (BioTek), and images were stitched and analyzed as described above. Viability assessments were made comparing drug treated to vehicle treated conditions. SU-DIPG and HSJD-DIPG-007 spheroid viability was assessed using CytoTox-Glo (Promega), according to the manufacturer's protocols. Spheroids were treated with FK866 for 120 hours before analysis using this method. IC50 calculations were made using GraphPad Prism, by fitting data to an [inhibitor] vs response−variable slope four parameter nonlinear regression (as depicted in the representative figures). siRNA Transfection and Viability Analysis Individual NAPRT targeting siRNAs were ordered from Dharmacon Inc. (Horizon Discovery), with target sequences listed in Table 1. The panel of siRNAs used for synthetic lethal viability screening was hand-selected and ordered from Dharmacon Inc. and were provided in ON-TARGET plus mixtures, each containing up to four unique siRNAs per gene. 2×10^5 astrocytes were reverse-transfected with different siRNAs (200 nM final concentration), using Lipofectamine RNAiMAX (Invitrogen), according to manufacturer's protocols. For individual siRNAs, cells were incubated for 72 hours, pelleted, and lyzed for immunoblotting. For the siRNA screen, cells were incubated for 24 hours and split to different condition plates, where they were incubated for an additional 24 hours. Cells were then treated with the described doses of FK866, and viability was assessed after 72 hours of drug treatment, using the image-based pipeline described above. Viability measurements were made for each siRNA, and normalized to FK866-untreated conditions.
Given the role of PPM1D in DDR pathways, we performed a small molecule synthetic lethal screen with a panel of inhibitors against key DNA repair and metabolic proteins, using methodology described previously by our group.
As for `O=P1(N(CCCl)CCCl)NCCCO1` (stereo not shown) [Cyclophosphamide], the “IC50 ratio (Parental/PPM1Dtrnc.)” value was 0.90.

Staying with this data set, now noted: ratio of IC50 in parental astrocytes to IC50 in PPM1Dtrnc. astrocytes; viability.
In the case of `Cc1cc([C@@H](C)Nc2ccccc2C(=O)O)c2nc(N3CCOCC3)cc(=O)n2c1` [AZD6482], the “IC50 ratio (Parental/PPM1Dtrnc.)” value turned out to be 1.00.
`NC(=O)Nc1cc(-c2cccc(F)c2)sc1C(=O)N[C@H]1CCCNC1` [AZD7762]: the “IC50 ratio (Parental/PPM1Dtrnc.)” value came to 0.77.
Same read-out and setting: next, `C[C@@]1(CO)[C@H](O)CC[C@@]2(C)[C@H]1CC[C@H]1C[C@@H]3C[C@@]12CC[C@]3(O)CO` [Aphidicolin]: 1.75; `Cn1c(=O)n(-c2ccc(C(C)(C)C#N)cc2)c2c3cc(-c4cnc5ccccc5c4)ccc3ncc21` [BEZ-235]: 1.01; `Cn1ncnc1[C@H]1c2n[nH]c(=O)c3cc(F)cc(c23)N[C@@H]1c1ccc(F)cc1` [BMN673]: 0.99.
Same read-out and setting: next, `Cn1c(CCCC(=O)O)nc2cc(N(CCCl)CCCl)ccc21` [Bendamustine]: 1.07.
The same measure, in the same setting: next, `C[C@@H](CN1CC(=O)NC(=O)C1)N1CC(=O)NC(=O)C1` [Dexrazoxane]: 1.17.
Consider `Cn1ncc2c(N3CCOCC3)nc(-c3cccc(O)c3)nc21` [ETP 45658], for which the “IC50 ratio (Parental/PPM1Dtrnc.)” value was found to be 1.51.
On the same count and under the same terms, next, `O=C(O)c1ccc(CN2CCC(CN[C@@H]3C[C@H]3c3ccccc3)CC2)cc1` [G5K2879552]: 1.00; `CCc1c2c(nc3ccc(OC(=O)N4CCC(N5CCCCC5)CC4)cc13)-c1cc3c(c(=O)n1C2)COC(=O)[C@]3(O)CC` [Irinotecan]: 1.01.
Consider `CCN1CCN(CC(=O)Nc2ccc(-c3cccc4c(=O)cc(N5CCOCC5)oc34)c3sc4ccccc4c23)CC1` [KU 0060648], for which the “IC50 ratio (Parental/PPM1Dtrnc.)” value was determined as 0.69.
On the same count and under the same terms, next, `O=c1cc(-c2cccc3c2Sc2ccccc2S3)oc(N2CCOCC2)c1` [KU-55933]: 1.18; `CC(N[C@H]1C[C@@H]1c1ccccc1)c1ccc2c(c1)OCCO2` (stereo partly shown) [LSD1-C76]: 0.98.
On to `O=NN(CCCl)C(=O)NC1CCCCC1` [Lomustine], for which the “IC50 ratio (Parental/PPM1Dtrnc.)” value turned out to be 1.10.
Same read-out and setting: next, `C=CCn1c(=O)c2cnc(Nc3ccc(N4CCN(C)CC4)cc3)nc2n1-c1cccc(C(C)(C)O)n1` [MK-1775]: 0.63; `CN(C)CCCNC(=O)c1ccc(-c2cc(O)c3ncccc3c2)cc1` [MLM324]: 1.02; `NS(=O)(=O)OC[C@@H]1C[C@@H](n2ccc3c(N[C@H]4CCc5ccccc54)ncnc32)C[C@@H]1O` [MLN4924]: 0.92.
On the same count and under the same terms, next, `CO[C@@]12[C@H](COC(N)=O)C3=C(C(=O)C(C)=C(N)C3=O)N1C[C@@H]1N[C@@H]12` [MMC]: 1.08; `COS(C)(=O)=O` [MMS]: 1.28.
On the same count and under the same terms, next, `O=c1cc(N2CCOCC2)oc2c(-c3cccc4c3sc3ccccc34)cccc12` [NU-7441]: 1.26; `O=C(c1cc(Cc2n[nH]c(=O)c3ccccc23)ccc1F)N1CCN(C(=O)C2CC2)CC1` [Olaparib]: 1.32.
`Cc1ccc([N+](=O)[O-])cc1S(=O)(=O)N(C)/N=C/c1cnc2ccc(Br)cn12` [PIK 75]: the “IC50 ratio (Parental/PPM1Dtrnc.)” value is 0.97.
On the same count and under the same terms, next, `OCc1ccc(-c2ccc(-c3ccc(CO)s3)o2)s1` [RITA]: 1.27; `C/C(=N\NC(=O)c1cccc(S(=O)(=O)N2CCOCC2)c1)c1cc(Cl)ccc1O` [SP2509]: 1.36; `CCN1CCN(C(=O)Cc2ccc(Nc3ncc(F)c(Nc4ccc(C(=O)Nc5ccccc5Cl)cc4)n3)cc2)CC1` [TC-S 7010]: 0.78.
Take `CNc1cc(-c2cccc(Cl)c2Cl)nc(N)n1` [TH287]: the “IC50 ratio (Parental/PPM1Dtrnc.)” value was found to be 1.52.
On the same count and under the same terms, next, `Cn1nnc2c(C(N)=O)ncn2c1=O` [TMZ]: 1.37; `CC[C@@]1(O)C(=O)OCc2c1cc1n(c2=O)Cc2cc3c(CN(C)C)c(O)ccc3nc2-1` [Topotecan]: 0.99.
Same read-out and setting: next, `CNCc1ccc(-c2cc(-c3nc(-c4ccc(S(=O)(=O)C(C)C)cc4)cnc3N)on2)cc1` [VE822]: 0.93.

The next data set concerns NAD and NADP levels in WT and PPM1Dtrnc. astrocytes. Briefly: NAD / NADP quantification in astrocytes. In kind it is cell-based, human. To be noted: PPM1Dtrnc. astrocytes; exogenous NR (50 μM, 24 hrs). The protocol: The NAD metabolome was quantitatively analyzed using LC-MS/MS, using two separations on Hypercarb and 13C metabolite standards. Subsequent NAD level analyses were performed using a NAD/NADH Quantification kit (Sigma), as per the manufacturer's specifications. Me/hME-DIP, Bisulfite Conversion, and Global 5-hmC Detection Genomic DNA was purified using the Wizard Genomic DNA purification kit (Promega), and subsequently immunoprecipitated or bisulfite-converted. […] Immunoprecipitated DNA was extracted with phenol/chloroform and analyzed using quantitative PCR (qPCR), as described below. Bisulfite conversion was performed via EpiMark Bisulfite Conversion kit (NEB). Modified DNA was then amplified using EpiMark Hot Start Taq DNA polymerase (NEB), with primers listed in Table 1, and purified with a PCR purification kit (Qiagen). Methylation was then assessed through Sanger-sequencing of the NAPRT promoter. Global 5-hydroxymethylcytosine levels were assessed via the Global 5-hmC quantification kit (Active Motif), according to manufacturer's protocols. Quantitative PCR (qPCR) mRNA transcripts were purified from cells using a RNAeasy kit (Qiagen) and subsequently reverse transcribed using a High Capacity cDNA reverse transcription kit (Applied Biosystems). PPM1D and NAPRT gene expression levels were assessed through qPCR with TaqMan fluorescent probes (all from Applied Biosystems): PPM1D (4331182), NAPRT (4351372), and Actin (4333762F), according to manufacturer's protocol. Expression level fold change was calculated via ΔΔCt comparison, using Actin as a reference gene. The NAPRT promoter region was quantitated via qPCR using Fast Start Universal SYBR Green Master with ROX (Roche), and primers listed in Table 1. All qPCR reactions were run on a StepOnePlus Real Time PCR system (Applied Biosystems).
Consider `NC(=O)c1ccc[n+]([C@@H]2O[C@H](CO)[C@@H](O)[C@H]2O)c1` [NR, nicotinamide riboside], for which the “Basal NAD levels” value is reported as “sufficiently increased”.

The subject of another data set is PPM1D (γH2AX foci in parental and PPM1Dtrnc. astrocytes). Kind of data set: γH2AX foci formation after ionizing radiation. In kind it is cell-based, human. To be noted: 10 Gy IR; 50 nM inhibitor 24 hours prior to IR. The protocol: Astrocyte cell lines were seeded and incubated overnight, before radiation. Plates were then collected at indicated time points, fixed, permeabilized/blocked, and stained with primary and secondary antibodies for fluorescent imaging. […] Cells were subsequently washed in 1×PBS, followed by a joint permeabilization and blocking step in incubation buffer (5% BSA and 0.5% TritonX100, in PBS) for 1 hour. Primary antibody raised against γH2AX […] (Millipore 05-636) was added at a dilution of 1:1000 in incubation buffer, and incubated overnight at 4° C. Plates were washed, followed by a 1 hour RT incubation with alexafluor-conjugated secondary antibodies (ThermoFisher A21425 or A11029, 1:10,000) and a nuclear dye, […] Hoechst 33342 (Sigma), in secondary buffer (0.5% TritonX100, in PBS). Plates were again washed, and imaged in PBS using the Cytation3 imaging system (BioTek). Images were stitched using Gen5 v2.09 software (BioTek), and both foci and cell numbers were counted using CellProfiler image processing software.
For `Cc1ncc(Cl)cc1NCc1ccc(C(=O)N[C@@H](CC2CCCC2)C(=O)NC2CC2)s1` [GSK2830371], the “Differences in γH2AX foci between parental and PPM1Dtrnc. astrocytes after IR” value is reported as “abolished”.

Another data set deals with PPM1Dtrnc. astrocytes.
Assay: not given
Conditions: not given
The protocol: PPM1D^trnc. astrocytes were treated with 50 µg/mL cycloheximide or 1 μM MG132 (both Sigma) for the indicated amount of time. Cells were then washed, pelleted, and lyzed for subsequent immunoblotting approaches, as described above. Quantification of immunoblot intensity was calculated using ImageJ software, and consisted of multiple (n=3) blots. Irradiation of cells was performed using an X-RAD KV irradiator (Precision X-ray), and treatment consisted of an unfractionated, 10 Gy dose. PPM1D inhibitor treatment with GSK2830371 (Selleckchem), consisted of 50 nM treatment, 24 hours prior to IR. FK866 (Selleckchem), GPP78 (Tocris Bioscience), STF118804 (Tocris Bioscience), STF31 (Tocris Bioscience), 5-azacytidine (Selleckchem), and Decitabine (Selleckchem) were dissolved in DMSO and used for treatment as indicated.
as §1
For `NC(=O)c1ccc[n+]([C@@H]2O[C@H](CO)[C@@H](O)[C@H]2O)c1` [NR, nicotinamide riboside], the “Effect on the cytotoxicity of FK866” value is “completely mitigated”.

The data set is the same for the next values; noted with them: 72 hr treatment; structurally distinct NAMPT inhibitors.
On to `O=C(CCCCCCCn1cc(-c2cccnc2)nn1)Nc1ccccc1-c1ccccc1` [GPP78], for which the “NAMPT inhibitor sensitivity of PPM1D mutant astrocytes” value is “confirmed”.
On to `CC(C)(C)c1ccc(S(=O)(=O)NCc2ccc(C(=O)Nc3cccnc3)cc2)cc1` [STF31], for which the “NAMPT inhibitor sensitivity of PPM1D mutant astrocytes” value is listed as “confirmed”.
The same measure, in the same setting: next, `Cc1ccc(S(=O)(=O)Cc2nc(-c3ccc(C(=O)NCc4cccnc4)cc3)oc2C)cc1` [STF118804]: “confirmed”.

The data set is the same for the next values; noted with them: PPM1Dtrnc. cells; 72 hr concurrent treatment with FK866.
Regarding `NC(=O)c1cccnc1` [NAM, nicotinamide], the “Effect on the cytotoxicity of FK866” value is on record as “strongly antagonized”.
